According to patent publication US7109380B2, “Cyclopentenedione antifungal compounds and methods for their use” (The University of Mississippi, priority 2004, dated 2006):
≈ marks a conversion by molar mass, not a printed value.

Assays:
Format in all cases: cell-based
[1] = tested on: M. intracellulare ATCC 23068; experiment: In vitro antibacterial assay (modified method of Franzblau, Alamar Blue); details: Mycobacterium intracellulare, ATCC23068, M. intracellulare ATCC 23068
[2] = tested on: Fusarium oxysporum; experiment: 96-well microtiter fungal growth assay;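 note: percent relative to untreated positive growth controls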
Text: (§1) Pathogen collection. Isolates of Colletotrichum acutatum Simmonds, Colletotrichum fragariae Brooks, and Colletotrichum gloeosporioides (Penz.) Penz. & Sacc. in Penz. were obtained from B. J. Smith, USDA, ARS, Small Fruit Research Station, Poplarville, Mass. Colletotrichum fragariae (isolate CF63), C. acutatum (isolate CAGoff), and C. gloeosporioides (isolate CG162) were used for all pathogen and bioautography studies. Isolate CF63 is one of the most virulent isolates at infecting strawberry plants and inducing both crown and fruit rot (Smith and Black, 1990). CF63, CAGoff, and CG162 were used as standard test isolates because of our extensive knowledge of these isolates and their known fungicide sensitivity profiles in both bioautography and microtiter formats. The three Colletotrichum species were isolated from strawberry (Fragaria xananassa Duchesne). Botrytis cinerea Pers.:Fr, was isolated from commercial grape (Vitis vinifera L.) and Fusarium oxysporum Schlechtend:Fr from orchid (Cynoches sp.) by David E. Wedge, USDA ARS Natural Products Utilization Research Unit. Phomopsis viticola (Sacc.) and P. obscurans (Ellis & Everh.) Sutton were from Mike A. Ellis, Ohio State University, Wooster, Ohio. Fungi were grown on potato-dextrose agar (PDA, Difco, Detroit Mich.) in 9 cm petri dishes and incubated in a growth chamber at 24±2° C. and under cool-white fluorescent lights ([…]·m^−2·sec^−1 light) with 12-h photoperiod.
(§2) Inoculum preparation. Conidia were harvested from 7–10 day-old cultures by flooding plates with 5 mL of sterile distilled water and dislodging conidia by softly brushing the colonies with an L-shaped glass rod. Conidial suspensions were filtered through sterile miracloth (Calbiochem-Novabiochem Corp., La Jolla Calif.) to remove mycelia. Conidia concentrations were determined photometrically, from a standard curve based on the absorbance at 625 nm and suspensions were then adjusted with sterile distilled water to a concentration of 1.0×10^6 conidia/mL.
(§3) Microtiter assay. A standardized 96-well microtiter plate assay developed for discovery of natural product fungicidal agents. A 96-well microtiter assay was used to determine sensitivity of B. cinerea, C. acutatum, C. fragariae, C. gloeosporioides, F. oxysporum, Phomopsis viticola, and P. obscurans to the various antifungal agents in comparison with known fungicidal standards. Vinclozolin, captan, and thiabendazole, which represent three different modes of action, were used as standards in this experiment. Each fungus was challenged in a dose-response format using test compounds where the final treatment concentrations were 0.3, 3.0 and 30.0 μM. Microtiter plates (Nunc MicroWell, untreated; Roskilde, Denmark) were covered with a plastic lid and incubated in a growth chamber at 24±1 C and 12 h photoperiod under 60±5 μmol light. Growth was then evaluated by measuring absorbance of each well at 620 nm using a microplate photometer (Packard Spectra Count, Packard Instrument Co., Downers Grove, Ill.).
(§4) Microbioassay Experimental Design. Chemical sensitivity of each fungus 96-well microtiter assay is used to determine sensitivity of B. cinerea, C. acutatum, C. fragariae, C. gloeosporioides, F. oxysporum, Phomopsis viticola, and P. obscurans. Each chemical is evaluated in duplicate at each dose (0.3, 3.0 and 30.0 μM) and repeated twice in time. Sixteen wells containing broth and inoculum serves as positive controls, eight wells containing solvent at the appropriate concentration and broth without inoculum are used as negative controls. Mean absorbance values and standard errors is used to evaluate fungal growth at 48 hrs and 72 hrs except for P. obscurans and P. viticola the data are recorded at 120 hrs. […] Treatments are arranged as a split-plot design replicated twice in time. Whole-plots were fungal isolates and sub-plots are chemicals. Each dose level and response time is analyzed separately. […]

[3] = tested on: Colletotrichum fragariae; experiment: 96-well microtiter fungal growth assay;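 note: percent relative to untreated positive growth controls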
Text: as §1, §2, §3, §4

[4] = tested on: Colletotrichum acutatum; experiment: 96-well microtiter fungal growth assay;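 note: percent relative to untreated positive growth controls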
Text: as §1, §2, §3, §4

[5] = tested on: Colletotrichum gloeosporioides; experiment: 96-well microtiter fungal growth assay;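 note: percent relative to untreated positive growth controls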
Text: as §1, §2, §3, §4

[6] = tested on: Botrytis cinerea; experiment: 96-well microtiter fungal growth assay;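 note: percent relative to untreated positive growth controls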
Text: as §1, §2, §3, §4

[7] = tested on: Phomopsis viticola; experiment: 96-well microtiter fungal growth assay;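 for Mean percent fungal growth inhibition of Phomopsis viticola: percent relative to untreated positive growth controls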
Text: as §1, §2, §3
(§5) Microbioassay Experimental Design. Chemical sensitivity of each fungus 96-well microtiter assay is used to determine sensitivity of B. cinerea, C. acutatum, C. fragariae, C. gloeosporioides, F. oxysporum, Phomopsis viticola, and P. obscurans. Each chemical is evaluated in duplicate at each dose (0.3, 3.0 and 30.0 μM) and repeated twice in time. Sixteen wells containing broth and inoculum serves as positive controls, eight wells containing solvent at the appropriate concentration and broth without inoculum are used as negative controls. […] Treatments are arranged as a split-plot design replicated twice in time. Whole-plots were fungal isolates and sub-plots are chemicals. Each dose level and response time is analyzed separately. The SAS system's analysis of variance procedure (Statistical Analysis System, Cary, N.C.) is used to identify significant factors and Fisher's protected LSD is used to separate means.

[8] = tested on: Phomopsis obscurans; experiment: 96-well microtiter fungal growth assay
Text: as §1, §2, §3, §5

SMILES: O=C(O)c1cn(C2CC2)c2cc(N3CCNCC3)c(F)cc2c1=O [CIP, ciprofloxacin, reference compound]
- MIC [1]: 0.63 µg/mL (≈ 1.9 µM)
- IC50 ([1]; read-out: IC50 (50% inhibitory concentration)): 0.3 µg/mL (≈ 0.905 µM)
- MBC ([1]; read-out: MBC (Minimum Bactericidal Concentration)): 1.25 µg/mL (≈ 3.77 µM)

SMILES: O=C1C2CC=CCC2C(=O)N1SC(Cl)(Cl)Cl (centres unmarked) [Captan]
- Mean percent fungal growth inhibition of Fusarium oxysporum ([2]; 0.3 μm, 48 hrs): 13.6 ± 3.5%
- Mean percent fungal growth inhibition of Fusarium oxysporum ([2]; 0.3 μm, 72 hrs): 12.0 ± 2.2%
- Mean percent fungal growth inhibition of Fusarium oxysporum ([2]; 3.0 μm, 48 hrs): −50.0 ± 2.8%
- Mean percent fungal growth inhibition of Fusarium oxysporum ([2]; 3.0 μm, 72 hrs): −5.4 ± 4.4%
- Mean percent fungal growth inhibition of Fusarium oxysporum ([2]; 30 μm, 48 hrs): −99.4 ± 0.3%
- Mean percent fungal growth inhibition of Fusarium oxysporum ([2]; 30 μm, 72 hrs): −99.5 ± 0.4%
- Mean percent fungal growth inhibition of Colletotrichum fragariae ([3]; 0.3 μm, 48 hrs): 18.1 ± 2.7%
- Mean percent fungal growth inhibition of Colletotrichum fragariae ([3]; 0.3 μm, 72 hrs): −17.5 ± 15.6%
- Mean percent fungal growth inhibition of Colletotrichum fragariae ([3]; 3.0 μm, 48 hrs): −96.2 ± 1.0%
- Mean percent fungal growth inhibition of Colletotrichum fragariae ([3]; 3.0 μm, 72 hrs): −74.0 ± 9.3%
- Mean percent fungal growth inhibition of Colletotrichum fragariae ([3]; 30 μm, 48 hrs): −99.7 ± 1.0%
- Mean percent fungal growth inhibition of Colletotrichum fragariae ([3]; 30 μm, 72 hrs): −91.4 ± 5.2%
- Mean percent fungal growth inhibition of Colletotrichum acutatum ([4]; 0.3 μm, 48 hrs): 42.5 ± 8.8%
- Mean percent fungal growth inhibition of Colletotrichum acutatum ([4]; 0.3 μm, 72 hrs): 35.4 ± 6.1%
- Mean percent fungal growth inhibition of Colletotrichum acutatum ([4]; 3.0 μm, 48 hrs): −98.0 ± 0.9%
- Mean percent fungal growth inhibition of Colletotrichum acutatum ([4]; 3.0 μm, 72 hrs): −94.1 ± 3.0%
- Mean percent fungal growth inhibition of Colletotrichum acutatum ([4]; 30 μm, 48 hrs): −98.6 ± 0.5%
- Mean percent fungal growth inhibition of Colletotrichum acutatum ([4]; 30 μm, 72 hrs): −99.7 ± 0.2%
- Mean percent fungal growth inhibition of Colletotrichum gloeosporoides ([5]; 0.3 μm, 48 hrs): 31.5 ± 7.3%
- Mean percent fungal growth inhibition of Colletotrichum gloeosporoides ([5]; 0.3 μm, 72 hrs): 38.6 ± 4.5%
- Mean percent fungal growth inhibition of Colletotrichum gloeosporoides ([5]; 3.0 μm, 48 hrs): −97.3 ± 1.5%
- Mean percent fungal growth inhibition of Colletotrichum gloeosporoides ([5]; 3.0 μm, 72 hrs): −95.2 ± 1.9%
- Mean percent fungal growth inhibition of Colletotrichum gloeosporoides ([5]; 30 μm, 48 hrs): −98.4 ± 0.5%
- Mean percent fungal growth inhibition of Colletotrichum gloeosporoides ([5]; 30 μm, 72 hrs): −98.6 ± 1.7%
- Mean percent fungal growth inhibition of Botrytis cinerea ([6]; 0.3 μm, 48 hrs): 3.1 ± 26.7%
- Mean percent fungal growth inhibition of Botrytis cinerea ([6]; 0.3 μm, 72 hrs): 3.4 ± 5.8%
- Mean percent fungal growth inhibition of Botrytis cinerea ([6]; 3.0 μm, 48 hrs): −45.9 ± 22.2%
- Mean percent fungal growth inhibition of Botrytis cinerea ([6]; 3.0 μm, 72 hrs): −46.1 ± 5.6%
- Mean percent fungal growth inhibition of Botrytis cinerea ([6]; 30 μm, 48 hrs): −76.4 ± 13.4%
- Mean percent fungal growth inhibition of Botrytis cinerea ([6]; 30 μm, 72 hrs): −98.7 ± 0.9%
- Mean percent fungal growth inhibition of Phomopsis viticola ([7]; 0.3 μm, 120 hrs): −118.5 ± 198.7%
- Mean percent fungal growth inhibition of Phomopsis viticola ([7]; 3.0 μm, 120 hrs): −99.8 ± 38.2%
- Mean percent fungal growth inhibition of Phomopsis viticola ([7]; 3.0 μm, 144 hrs): −95.7 ± 26.0%
- Mean percent fungal growth inhibition of Phomopsis viticola ([7]; 30 μm, 120 hrs): −100.0 ± 0.0%
- Mean percent fungal growth inhibition of Phomopsis viticola ([7]; 30 μm, 144 hrs): −67.8 ± 21.5%
- IC50 ([7]; Diaporthe ampelina, 72 h, read-out: IC50 (growth inhibition)): < 3.1 µM
- Percent change in fungal growth vs control (negative = inhibition) ([8]; 0.3 μm, 120 hrs): −37.3 ± 6.6%
- Percent change in fungal growth vs control (negative = inhibition) ([8]; 0.3 μm, 144 hrs): −30.9 ± 6.3%
- Percent change in fungal growth vs control (negative = inhibition) ([8]; 3.0 μm, 120 hrs): −96.0 ± 1.8%
- Percent change in fungal growth vs control (negative = inhibition) ([8]; 3.0 μm, 144 hrs): −98.3 ± 0.6%
- Percent change in fungal growth vs control (negative = inhibition) ([8]; 30 μm, 120 hrs): −100 ± 0.0%
- Percent change in fungal growth vs control (negative = inhibition) ([8]; 30 μm, 144 hrs): −99.6 ± 0.2%

SMILES: Cc1cc(C2CC2)nc(Nc2ccccc2)n1 [Cyprodinil]
- Mean percent fungal growth inhibition of Fusarium oxysporum ([2]; 0.3 μm, 48 hrs): 16.4 ± 3.9%
- Mean percent fungal growth inhibition of Fusarium oxysporum ([2]; 0.3 μm, 72 hrs): 7.9 ± 2.9%
- Mean percent fungal growth inhibition of Fusarium oxysporum ([2]; 3.0 μm, 48 hrs): 2.6 ± 2.6%
- Mean percent fungal growth inhibition of Fusarium oxysporum ([2]; 3.0 μm, 72 hrs): 1.8 ± 2.7%
- Mean percent fungal growth inhibition of Fusarium oxysporum ([2]; 30 μm, 48 hrs): −67.4 ± 4.3%
- Mean percent fungal growth inhibition of Fusarium oxysporum ([2]; 30 μm, 72 hrs): −41.5 ± 5.1%
- Mean percent fungal growth inhibition of Colletotrichum fragariae ([3]; 0.3 μm, 48 hrs): −94.1 ± 1.4%
- Mean percent fungal growth inhibition of Colletotrichum fragariae ([3]; 0.3 μm, 72 hrs): −54.1 ± 19.3%
- Mean percent fungal growth inhibition of Colletotrichum fragariae ([3]; 3.0 μm, 48 hrs): −89.0 ± 1.6%
- Mean percent fungal growth inhibition of Colletotrichum fragariae ([3]; 3.0 μm, 72 hrs): −76.7 ± 4.7%
- Mean percent fungal growth inhibition of Colletotrichum fragariae ([3]; 30 μm, 48 hrs): −95.5 ± 0.5%
- Mean percent fungal growth inhibition of Colletotrichum fragariae ([3]; 30 μm, 72 hrs): −92.5 ± 3.2%
- Mean percent fungal growth inhibition of Colletotrichum acutatum ([4]; 0.3 μm, 48 hrs): −102.2 ± 0.9%
- Mean percent fungal growth inhibition of Colletotrichum acutatum ([4]; 0.3 μm, 72 hrs): −94.5 ± 4.4%
- Mean percent fungal growth inhibition of Colletotrichum acutatum ([4]; 3.0 μm, 48 hrs): −98.1 ± 0.7%
- Mean percent fungal growth inhibition of Colletotrichum acutatum ([4]; 3.0 μm, 72 hrs): −98.3 ± 0.6%
- Mean percent fungal growth inhibition of Colletotrichum acutatum ([4]; 30 μm, 48 hrs): −99.7 ± 0.7%
- Mean percent fungal growth inhibition of Colletotrichum acutatum ([4]; 30 μm, 72 hrs): −99.0 ± 0.3%
- Mean percent fungal growth inhibition of Colletotrichum gloeosporoides ([5]; 0.3 μm, 48 hrs): −89.9 ± 2.7%
- Mean percent fungal growth inhibition of Colletotrichum gloeosporoides ([5]; 0.3 μm, 72 hrs): −62.9 ± 9.3%
- Mean percent fungal growth inhibition of Colletotrichum gloeosporoides ([5]; 3.0 μm, 48 hrs): −85.4 ± 6.6%
- Mean percent fungal growth inhibition of Colletotrichum gloeosporoides ([5]; 3.0 μm, 72 hrs): −76.4 ± 6.3%
- Mean percent fungal growth inhibition of Colletotrichum gloeosporoides ([5]; 30 μm, 48 hrs): −95.1 ± 1.0%
- Mean percent fungal growth inhibition of Colletotrichum gloeosporoides ([5]; 30 μm, 72 hrs): −91.1 ± 1.6%
- Mean percent fungal growth inhibition of Botrytis cinerea ([6]; 0.3 μm, 48 hrs): −96.6 ± 2.3%
- Mean percent fungal growth inhibition of Botrytis cinerea ([6]; 0.3 μm, 72 hrs): 26.56 ± 14.1%
- Mean percent fungal growth inhibition of Botrytis cinerea ([6]; 3.0 μm, 48 hrs): −90.2 ± 3.3%
- Mean percent fungal growth inhibition of Botrytis cinerea ([6]; 3.0 μm, 72 hrs): −81.4 ± 9.2%
- Mean percent fungal growth inhibition of Botrytis cinerea ([6]; 30 μm, 48 hrs): −94.2 ± 2.1%
- Mean percent fungal growth inhibition of Botrytis cinerea ([6]; 30 μm, 72 hrs): −96.2 ± 1.5%
- Mean percent fungal growth inhibition of Phomopsis viticola ([7]; 0.3 μm, 120 hrs): −219 ± 122.1%
- Mean percent fungal growth inhibition of Phomopsis viticola ([7]; 3.0 μm, 120 hrs): −184.6 ± 87.0%
- Mean percent fungal growth inhibition of Phomopsis viticola ([7]; 3.0 μm, 144 hrs): 451.7 ± 331.5%
- Mean percent fungal growth inhibition of Phomopsis viticola ([7]; 30 μm, 120 hrs): −176.2 ± 48.2%
- Mean percent fungal growth inhibition of Phomopsis viticola ([7]; 30 μm, 144 hrs): 80.4 ± 111.6%
- Percent change in fungal growth vs control (negative = inhibition) ([8]; 0.3 μm, 120 hrs): −51.4 ± 5.9%
- Percent change in fungal growth vs control (negative = inhibition) ([8]; 0.3 μm, 144 hrs): −46.3 ± 6.0%
- Percent change in fungal growth vs control (negative = inhibition) ([8]; 3.0 μm, 120 hrs): −64.5 ± 10.7%
- Percent change in fungal growth vs control (negative = inhibition) ([8]; 3.0 μm, 144 hrs): −72.6 ± 3.9%
- Percent change in fungal growth vs control (negative = inhibition) ([8]; 30 μm, 120 hrs): −86.8 ± 1.3%
- Percent change in fungal growth vs control (negative = inhibition) ([8]; 30 μm, 144 hrs): −81.5 ± 2.5%
